Test results published in patent US20220287970A1, “COMPOSITION FOR INHIBITING SAPONIN-INDUCED HEMOLYSIS, CONTAINING CATIONIC LIPOSOME” (priority 2020, published 2022).

Tests used:
red blood cells (RBCs) [1] = experiment: Hemolysis analysis: steroidal and triterpenoid saponins (Example 5); type: cell-based; conditions: saponin alone
Description: 1) The liposome, saponin, sucrose in a HEPES buffer (pH 7.4), and distilled water were placed in a 96-well plate, as shown in Tables 14 and 15 below.
2) The reaction was carried out at room temperature and 300 rpm for 30 minutes using an orbital shaker.
3) 3 mL of RBCs were suspended in 10 mL of PBS and centrifuged at room temperature and 1500 rpm for 5 minutes, after which the supernatant was removed.
4) Steps 2) and 3) were repeated three times, and thus the RBCs were washed.
5) The RBC pellet was suspended in 1 mL of PBS and diluted to 1/100, followed by cell counting.
6) The RBCs were diluted to 1.5×10^9 cells/mL using PBS and dispensed at 3×10^7 cells/20 μL/well in a 96-well plate treated with the test material of 2) above.
7) The reaction was carried out at room temperature and 300 rpm for 1 hour using an orbital shaker.
8) The 96-well plate was centrifuged at room temperature and 1500 rpm for 5 minutes.
9) 50 μL of the supernatant was transferred to a new 96-well plate, and the absorbance was then measured at 415 nm.
10) Hemolysis (%) was calculated using the following equation.
(§1) Hemolysis (%)=(OD of sample OD of 0% hemolysis)/(0D of 100% hemolysis−OD of 0% hemolysis)×100

red blood cells (RBCs) [2] = experiment: Hemolysis analysis: cationic liposome screening vs crude saponin and QS21 (Example 3); type: cell-based; conditions: saponin alone
Description: 1) After freeze-drying, the liposome stored in the glass vial was hydrated with 225 μL of distilled water and then allowed to react at 60° C. for 10 minutes to thus completely dissolve the liposome.
2) The liposome, saponin, sucrose in a HEPES buffer (pH 7.4), and distilled water were placed in a 96-well plate, as shown in Tables 8 and 9 below.
3) The reaction was carried out at room temperature and 300 rpm for 30 minutes using an orbital shaker.
4) 3 mL of RBCs were suspended in 10 mL of PBS and centrifuged at room temperature and 1500 rpm for 5 minutes, after which the supernatant was removed.
5) Steps 3) and 4) were repeated three times, and thus the RBCs were washed.
6) The RBC pellet was suspended in 1 mL of PBS and diluted to 1/100, followed by cell counting.
7) The RBCs were diluted to 1.5×10^9 cells/mL using PBS and dispensed at 3×10^7 cells/20 μL/well in a 96-well plate treated with the test material of 2) above.
8) The reaction was carried out at room temperature and 300 rpm for 1 hour using an orbital shaker.
9) The 96-well plate was centrifuged at room temperature and 1500 rpm for 5 minutes.
10) 50 μL of the supernatant was transferred to a new 96-well plate, and the absorbance was then measured at 415 nm.
11) Hemolysis (%) was calculated using the following equation.
as §1

| Compound | amount of saponin at which 60% hemolysis was observed (red blood cells (RBCs) [1]) [µg] | amount of saponin at which 100% hemolysis was observed (red blood cells (RBCs) [1]) [µg] | amount of saponin at which 100% hemolysis was observed (red blood cells (RBCs) [2]) [µg] |
| --- | --- | --- | --- |
| C[C@@H]1CC[C@@]2(OC1)O[C@H]1C[C@H]3[C@@H]4CC=C5C[C@@H](O[C@@H]6O[C@H](CO)[C@@H](O[C@@H]7O[C@@H](C)[C@H](O[C@@H]8O[C@@H](C)[C@H](O)[C@@H](O)[C@H]8O)[C@@H](O)[C@H]7O)[C@H](O)[C@H]6O[C@@H]6O[C@@H](C)[C@H](O)[C@@H](O)[C@H]6O)CC[C@]5(C)[C@H]4CC[C@]3(C)[C@@]1(O)[C@@H]2C [Paris VII] | 1.25 | 5 |  |
| C[C@@H]1CC[C@@]2(OC1)O[C@H]1[C@@H](O)[C@H]3[C@@H]4CC[C@H]5C[C@@H](O[C@@H]6O[C@H](CO)[C@H](O[C@@H]7O[C@H](CO)[C@@H](O)[C@H](O[C@@H]8OC[C@@H](O)[C@H](O)[C@H]8O)[C@H]7O[C@@H]7O[C@H](CO)[C@H](O)[C@H](O[C@@H]8O[C@H](CO)[C@@H](O)[C@H](O)[C@H]8O)[C@H]7O)[C@H](O)[C@H]6O)[C@H](O)C[C@]5(C)[C@H]4CC[C@]3(C)[C@H]1[C@@H]2C [digitonin] | 2.5 | 10 |  |
| C[C@@H]1O[C@@H](O[C@H]2[C@H](O[C@H]3CC[C@@]4(C)[C@@H](CC[C@]5(C)[C@@H]4CC=C4[C@@H]6CC(C)(C)CC[C@]6(C(=O)O)CC[C@]45C)[C@]3(C)CO)OC[C@H](O)[C@@H]2O)[C@H](O)[C@H](O)[C@H]1O [α-hederin] | 1.25 | 10 |  |
| QS21 |  |  | 2.5 |
